These results are taken from patent publication US20220354834A1, “METHODS AND MATERIALS FOR TREATING NEUROTOXICITY” (Cavion, Inc., priority 2019, published 2022).

One data set concerns β-tubulin. The data set can be described thus: β-tubulin polymerization assay in sciatic nerve. Format: in vivo, Wistar rat. As to conditions: week 8. As for the experimental part: (§1) Wistar female rats (n=52) (Envigo, Correzzano, Italy) at 10-11 weeks of age were utilized. The study was divided into 2 phases of 4 weeks each. […] Body weight was measured periodically during phase 1 from baseline (day 1) to day 28. At baseline and conclusion of phase 1 (day 28), nerve conduction velocity (NCV) was performed on caudal and sciatic nerves and Dynamic Aesthesiometer Test (DAT) measured mechanical threshold (MT) of the hind paw. […] Body weight was measured periodically from baseline (day 28) to day 56 (termination). NCV and MT were measured in all 4 groups at baseline and on day 35 and 56. […] At termination, sciatic nerves were obtained for β-tubulin polymerization and skin samples were procured for intraepidermal nerve fiber (IENF) density and histopathology.
At day 56, animals were euthanized by CO2 inhalation and tissue samples were procured from 4 rats per group. Right sciatic nerve was frozen in liquid nitrogen for β-tubulin polymerization assay and plantar glabrous skin samples were collected for IENF density.
Protein extracts from sciatic nerves were processed similar to the proteasome assay except for lysis buffer that contained freshly added protease and […] (10 mM sodium orthovanadate, 4 mM phenylmethylsulfonyl fluoride, 1% aprotinin and 20 mM sodium pyrophosphate). Protein extracts were centrifuged (14000 rpm for 10 minutes at 4° C.) to separate soluble (S) free tubulin fractions from polymerized (P) fractions. Supernatants were collected and pellets of polymerized tubulin were resuspended by sonication for 20 seconds in a volume of lysis buffer supplemented with 0.5% sodium deoxycholate (equivalent to S fraction). Protein aliquots (10 μg) were placed onto 13% SDS-PAGE and, after electrophoresis, were transferred to nitrocellulose filters. Immunoblotting analysis was performed using mouse anti-β-tubulin antibody. After incubation with primary antibody, membrane was washed and incubated with horseradish peroxidase conjugated to […] (Perkin Elmer Italia SPA, Monza, Italy). The ECL chemiluminescence system (Amersham GE Healthcare Europe GmbH, Milano, Italy) was used for detection. Band intensity was quantified with Gel Logic 100 Image System (Eastman Kodak, Rochester, N.Y., USA). Final mean values were obtained from triplicate experiments and data were expressed as percentage of P/P+S in treated rats compared to controls.

The subject of another data set is U266B1 cells. The data set can be described thus: In vitro BTZ cytotoxicity study (SRB assay). It counts as cell-based. The settings on record: Homo sapiens, 72 hours, read-out: IC50 of % cell survival. Here is the method: (§2) MM.1S and U266B1 cells were obtained from the American Type Culture Collection (San Giovanni, Italy). All cell lines were maintained in floating culture with RPMI medium that contained 2 mM L-glutamine supplemented with 10% FBS, penicillin and streptomycin. MM.1S cell medium was supplemented with 1.5 g/L sodium bicarbonate, 10 mM HEPES and 1 mM sodium pyruvate. Cells were grown in 75 cm^2 culture flasks for floating cells (Corning Inc. Corning, N.Y., USA) at 37° C. in 5% CO2 and 95% air.
(§3) Cells were plated in 96-well plates (Eppendorf, Milano, Italy) at 10000 cells/well. […] After incubation, BTZ was diluted in culture medium at dose range for testing. Cells were fixed with trichloroacetic acid for 1 hour. Cells were stained with a solution of SRB in 1% acetic acid for 15 minutes. Unbound dye was removed by 5 washes with 1% acetic acid. Bound dye was dissolved with a solution of Tris (hydroxymethyl) aminomethane base and absorbance of content was measured at […]. Growth inhibition was expressed as percentage of DMSO control absorbance of cells and corrected for absorbance before addition of drug.

For a further data set, the system named is MM.1S cells. The data set can be described thus: In vitro BTZ cytotoxicity study (SRB assay). It counts as cell-based. As to conditions: Homo sapiens, MM1.S, 72 hours, read-out: IC50 of % cell survival. As for the experimental part: as §2, §3
On the technique in general: The SRB assay estimates cell density from bound dye.

A further data set concerns proteasome. The data set can be described thus: Proteasome inhibition assay in PBMCs of treated rats. It counts as in vivo, rat. Here is the method:
as §1

Another data set relates to RPMI 8226 cells. The data set can be described thus: In vitro BTZ cytotoxicity study (SRB assay). Format: cell-based. As to conditions: Homo sapiens, 72 hours, read-out: IC50 of % cell survival.
Data set [1] has as its system human MMCs (RPMI 8226, MM.1S, U266B1). The data set can be described thus: In vitro cytotoxicity and combination (BTZ and CX-8998) interference study, SRB assay in the 3 MCLs. Format: cell-based. As to conditions: 72 hours. Here is the method:
as §3
Differences in percent cell survival between each drug or drug combination and control were analyzed by non-linear least squares with statistical significance at p<0.05.

By IC50 is commonly meant the midpoint of a concentration-inhibition curve.

With `CC(C)c1ccc(CC(=O)N[C@H](C)c2ccc(OCC(F)(F)F)cn2)cc1` [CX-8998, (R)-2-(4-Isopropylphenyl)-N-(1-(5-(2,2,2-Trifluoroethoxy)pyridin-2-yl)ethyl)acetamide], the “TUBULIN POLYMERIZATION, Difference in rank sum (Dunn's Multiple Comparison Test)” value (from here on “TUBULIN POLYMERIZATION, Difference”) in the data set on β-tubulin (BTZ vs BTZ+ CX-8998 3 mg/kg, P > 0.05 ns) was −4.000; in the data set with β-tubulin (BTZ vs BTZ+ CX-8998 10 mg/kg, P > 0.05 ns), −4.000; with β-tubulin (BTZ vs BTZ+ CX-8998 30 mg/kg, P > 0.05 ns) it was 15.00; with β-tubulin (BTZ+ CX-8998 3 mg/kg vs BTZ+ CX-8998 10 mg/kg, P > 0.05 ns) it was 0.000; in the data set on β-tubulin (BTZ+ CX-8998 3 mg/kg vs BTZ+ CX-8998 30 mg/kg, P < 0.05 *), 19.00; with β-tubulin (BTZ+ CX-8998 10 mg/kg vs BTZ+ CX-8998 30 mg/kg, P < 0.05 *) it was 19.00. The “TUBULIN POLYMERIZATION, Difference” value in the data set with β-tubulin (CTRL vs BTZ+ CX-8998 3 mg/kg, P < 0.05 *) was −15.64; in the data set on β-tubulin (CTRL vs BTZ+ CX-8998 10 mg/kg, P < 0.05 *), −15.46; in the data set with β-tubulin (CTRL vs BTZ+ CX-8998 30 mg/kg, P > 0.05 ns) it was 0.2576.
Consider `CC(C)C[C@H](NC(=O)[C@H](Cc1ccccc1)NC(=O)c1cnccn1)B(O)O` [BTZ, bortezomib, reference compound], for which the IC50 turned out to be 2.5 ± 0.6 nM with U266B1 cells, 6 ± 0.5 nM in the data set on MM.1S cells and 4 ± 1.7 nM with RPMI 8226 cells. For the same compound, the “% proteasome activity in circulating PBMCs” value in the data set on proteasome (BTZ, week 4 vs baseline, p<0.05) is reported as “significant inhibition”. Moreover, the proteasome activity result in the data set on proteasome (weeks 5 and 8, BTZ alone) was “similarly inhibited”. In addition, the “TUBULIN POLYMERIZATION, Difference” value with β-tubulin (CTRL vs BTZ, P < 0.05 *) is reported as −14.74. Moreover, the “β-tubulin polymerization (%)” value with β-tubulin (BTZ alone vs control, p<0.05) is on record as “significantly increased”. Moreover, the “inhibition of cell growth (cytotoxicity)” value in data set [1] (BTZ 0.05-250 nM, 3 MCLs) was “concentration-dependent inhibition of cell growth”. In addition, the percent cell survival entry in data set [1] (BTZ alone at IC50 (6, 4, 2.5 nM) vs DMSO control, p<0.001) was “significantly reduced”.
